Mutagenic call data for four compounds are collected here from PubChem BioAssay AID1259407 (Chemical Carcinogenesis Research Information System (CCRIS), 2018).

Calls of active or inactive are those of the source. The rule behind the calls is not given here.

For the data set, the system named is CCRIS mutagenicity, Ames/micronucleus/aberration tests. Briefly: CCRIS mutagenicity studies.
Where [1] appears, read: Test System: AMES SALMONELLA TYPHIMURIUM, Strain/Indicator: TA98, Metabolic Activation: NONE, Method: PREINCUBATION
Setting [2] is: Test System: AMES SALMONELLA TYPHIMURIUM, Strain/Indicator: TA100, Metabolic Activation: HAMSTER, LIVER, S-9, AROCLOR 1254 (30%), Method: PREINCUBATION
Setting [3] is: Test System: AMES SALMONELLA TYPHIMURIUM, Strain/Indicator: TA100, Metabolic Activation: NONE, Method: PREINCUBATION
The mark [4] stands for this setting: Test System: AMES SALMONELLA TYPHIMURIUM, Strain/Indicator: TA100, Metabolic Activation: RAT, LIVER, S-9, AROCLOR 1254 (30%), Method: PREINCUBATION
The mark [5] stands for this setting: Test System: AMES SALMONELLA TYPHIMURIUM, Strain/Indicator: TA98, Metabolic Activation: NONE, Method: STANDARD PLATE.
Where [6] appears, read: Test System: AMES SALMONELLA TYPHIMURIUM, Strain/Indicator: TA100, Metabolic Activation: NONE, Method: STANDARD PLATE.
Setting [7] is: Test System: AMES SALMONELLA TYPHIMURIUM, Strain/Indicator: TA1535, Metabolic Activation: NONE, Method: PREINCUBATION

As to `Cc1ccc2c(c1N)C(=O)c1ccccc1C2=O`, the mutagenic call reads like this: (Test System: AMES SALMONELLA TYPHIMURIUM, Strain/Indicator: TA98, Metabolic Activation: HAMSTER, LIVER, S-9, AROCLOR 1254 (30%), Method: PREINCUBATION) “active; positive”; under setting [1], “inactive; negative”; (Test System: AMES SALMONELLA TYPHIMURIUM, Strain/Indicator: TA98, Metabolic Activation: RAT, LIVER, S-9, AROCLOR 1254 (30%), Method: PREINCUBATION) “active; positive”; under setting [2], “inactive; negative”; under setting [3], “inactive; negative”; under setting [4], “active; positive”. In addition, the mutagenic call is, setting by setting: (Test System: AMES SALMONELLA TYPHIMURIUM, Strain/Indicator: TA1537 R+, Metabolic Activation: NONE, Method: STANDARD PLATE) “active; positive”; (Test System: AMES SALMONELLA TYPHIMURIUM, Strain/Indicator: TA1537 R+, Metabolic Activation: RAT, LIVER, S-9, AROCLOR 1254, Method: STANDARD PLATE) “active; positive”; (Test System: MOUSE LYMPHOMA, Strain/Indicator: L5178Y (TK+/TK-), Metabolic Activation: NONE, Method: SUSPENSION/PLATE) “active; positive”.

Regarding `O=C1Nc2ccc(Cl)cc2C(c2ccccc2)=NC1O` (stereo not drawn), the mutagenic call is, setting by setting: (End Point: IN VITRO MICRONUCLEUS, Test System: HUMAN - HUMAN AMNIOTIC FLUID FIBROBLAST-LIKE (AFFL) CELLS, Metabolic Activation: NONE) “active; positive”; (End Point: IN VITRO MICRONUCLEUS, Test System: MOUSE LYMPHOMA L5178Y CELLS, Metabolic Activation: NONE) “active; positive”; (End Point: IN VITRO MICRONUCLEUS, Test System: SYRIAN HAMSTER EMBRYO FIBROBLAST (SHE) CELLS, Metabolic Activation: NONE) “active; positive”; (Test System: AMES SALMONELLA TYPHIMURIUM, Strain/Indicator: TA97, Metabolic Activation: HAMSTER, LIVER, S-9, AROCLOR 1254 (10%), Method: PREINCUBATION) “inactive; negative”; (Test System: AMES SALMONELLA TYPHIMURIUM, Strain/Indicator: TA97, Metabolic Activation: HAMSTER, LIVER, S-9, AROCLOR 1254 (30%), Method: PREINCUBATION) “inactive; negative”; (Test System: AMES SALMONELLA TYPHIMURIUM, Strain/Indicator: TA97, Metabolic Activation: NONE, Method: PREINCUBATION) “inactive; negative”. In addition, the mutagenic call reads like this: (Test System: AMES SALMONELLA TYPHIMURIUM, Strain/Indicator: TA97, Metabolic Activation: RAT, LIVER, S-9, AROCLOR 1254 (30%), Method: PREINCUBATION) “inactive; negative”; (Test System: AMES SALMONELLA TYPHIMURIUM, Strain/Indicator: TA98, Metabolic Activation: HAMSTER, LIVER, S-9, AROCLOR 1254 (10 OR 30%), Method: PREINCUBATION) “inactive; negative”; under setting [1], “inactive; negative”; under setting [5], “inactive; negative”; (Test System: AMES SALMONELLA TYPHIMURIUM, Strain/Indicator: TA98, Metabolic Activation: RAT, LIVER, S-9, AROCLOR 1254 (10 OR 30%), Method: PREINCUBATION) “inactive; negative”; (Test System: AMES SALMONELLA TYPHIMURIUM, Strain/Indicator: TA98, Metabolic Activation: RAT, LIVER, S-9, AROCLOR 1254, Method: STANDARD PLATE) “inactive; negative”. Moreover, the mutagenic call (Test System: AMES SALMONELLA TYPHIMURIUM, Strain/Indicator: TA100, Metabolic Activation: HAMSTER, LIVER, S-9, AROCLOR 1254 (10%), Method: PREINCUBATION) was “inactive; negative”; the mutagenic call under setting [2] was “inactive; negative”; the mutagenic call under setting [3] was “inactive; negative”; the mutagenic call under setting [6] was “inactive; negative”; the mutagenic call (Test System: AMES SALMONELLA TYPHIMURIUM, Strain/Indicator: TA100, Metabolic Activation: RAT, LIVER, S-9, AROCLOR 1254 (10%), Method: PREINCUBATION) is “inactive; negative”; the mutagenic call under setting [4] was “inactive; negative”. Further, the mutagenic call by setting is: (Test System: AMES SALMONELLA TYPHIMURIUM, Strain/Indicator: TA100, Metabolic Activation: RAT, LIVER, S-9, AROCLOR 1254, Method: STANDARD PLATE) “inactive; negative”; (Test System: AMES SALMONELLA TYPHIMURIUM, Strain/Indicator: TA102, Metabolic Activation: HAMSTER, LIVER, S-9, AROCLOR 1254 (10%), Method: PREINCUBATION) “inactive; negative”; (Test System: AMES SALMONELLA TYPHIMURIUM, Strain/Indicator: TA102, Metabolic Activation: HAMSTER, LIVER, S-9, AROCLOR 1254 (30%), Method: PREINCUBATION) “inactive; negative”; (Test System: AMES SALMONELLA TYPHIMURIUM, Strain/Indicator: TA102, Metabolic Activation: NONE, Method: PREINCUBATION) “inactive; negative”; (Test System: AMES SALMONELLA TYPHIMURIUM, Strain/Indicator: TA102, Metabolic Activation: RAT, LIVER, S-9, AROCLOR 1254 (10%), Method: PREINCUBATION) “inactive; negative”; (Test System: AMES SALMONELLA TYPHIMURIUM, Strain/Indicator: TA102, Metabolic Activation: RAT, LIVER, S-9, AROCLOR 1254 (30%), Method: PREINCUBATION) “inactive; negative”. Further, the mutagenic call is “inactive; negative” (Test System: AMES SALMONELLA TYPHIMURIUM, Strain/Indicator: TA1535, Metabolic Activation: HAMSTER, LIVER, S-9, AROCLOR 1254 (10%), Method: PREINCUBATION); “inactive; negative” (Test System: AMES SALMONELLA TYPHIMURIUM, Strain/Indicator: TA1535, Metabolic Activation: HAMSTER, LIVER, S-9, AROCLOR 1254 (30%), Method: PREINCUBATION); “inactive; negative” under setting [7]; “inactive; negative” (Test System: AMES SALMONELLA TYPHIMURIUM, Strain/Indicator: TA1535, Metabolic Activation: NONE, Method: STANDARD PLATE); “inactive; negative” (Test System: AMES SALMONELLA TYPHIMURIUM, Strain/Indicator: TA1535, Metabolic Activation: RAT, LIVER, S-9, AROCLOR 1254 (10%), Method: PREINCUBATION); “inactive; negative” (Test System: AMES SALMONELLA TYPHIMURIUM, Strain/Indicator: TA1535, Metabolic Activation: RAT, LIVER, S-9, AROCLOR 1254 (30%), Method: PREINCUBATION). The mutagenic call (Test System: AMES SALMONELLA TYPHIMURIUM, Strain/Indicator: TA1535, Metabolic Activation: RAT, LIVER, S-9, AROCLOR 1254, Method: STANDARD PLATE) is “inactive; negative”; the mutagenic call (Test System: AMES SALMONELLA TYPHIMURIUM, Strain/Indicator: TA1537, Metabolic Activation: NONE, Method: STANDARD PLATE) was “inactive; negative”; the mutagenic call (Test System: AMES SALMONELLA TYPHIMURIUM, Strain/Indicator: TA1537, Metabolic Activation: RAT, LIVER, S-9, AROCLOR 1254, Method: STANDARD PLATE) was “inactive; negative”.

On to `Cc1ccc(C)c2c1[nH]c1ccccc12`, for which the mutagenic call runs as follows: under setting [5], “inactive; negative”; (Test System: AMES SALMONELLA TYPHIMURIUM, Strain/Indicator: TA98, Metabolic Activation: RAT LIVER S-9, AROCLOR 1254, Method: STANDARD PLATE) “active; positive”; under setting [6], “inactive; negative”; (Test System: AMES SALMONELLA TYPHIMURIUM, Strain/Indicator: TA100, Metabolic Activation: RAT LIVER S-9, AROCLOR 1254, Method: STANDARD PLATE) “inactive; negative”.

Consider `C[n+]1c2ccccc2cc2c(N)cccc21`, for which the mutagenic call by setting is: under setting [7], “inactive; negative”; (Test System: AMES SALMONELLA TYPHIMURIUM, Strain/Indicator: TA1535, Metabolic Activation: RAT, LIVER, S-9, TETRACHLOROBIPHENYL, Method: PREINCUBATION) “inactive; negative”; (Test System: AMES SALMONELLA TYPHIMURIUM, Strain/Indicator: TA1537, Metabolic Activation: NONE, Method: PREINCUBATION) “active; positive”; (Test System: AMES SALMONELLA TYPHIMURIUM, Strain/Indicator: TA1537, Metabolic Activation: RAT, LIVER, S-9, TETRACHLOROBIPHENYL, Method: PREINCUBATION) “active; positive”; (Test System: AMES SALMONELLA TYPHIMURIUM, Strain/Indicator: TA1538, Metabolic Activation: NONE, Method: PREINCUBATION) “inactive; negative”; (Test System: AMES SALMONELLA TYPHIMURIUM, Strain/Indicator: TA1538, Metabolic Activation: RAT, LIVER, S-9, TETRACHLOROBIPHENYL, Method: PREINCUBATION) “inactive; negative”. The mutagenic call (Test System: AMES SALMONELLA TYPHIMURIUM, Strain/Indicator: TA1977, Metabolic Activation: NONE, Method: PREINCUBATION) was “active; positive”.
